Measurements from patent publication US20260130933A1, “PHARMACEUTICAL COMPOSITION FOR PREVENTION OR TREATMENT OF NEPHROPATHY AND/OR DIABETES MELLITUS, COMPRISING ENAVOGLIFLOZIN” (DAEWOONG PHARMACEUTICAL CO., LTD., priority 2022, published 2026).

Assay: Example 3: phase 3 trial, enavogliflozin 0.3 mg vs dapagliflozin 10 mg once a day for 24 weeks added to metformin and gemigliptin in patients with type 2 diabetes (same endpoints, rescue drug)
Assay type: in vivo, human
Method: 1) when Metformin (≥1,000 mg/Day) was Administered at a Constant Dose for at Least 8 Weeks Prior to Pre-Visit (Pre-Screening) • Metformin (≥1,000 mg/day) and gemigliptin (50 mg/day) were co-administered during the 8-week stabilization period. […] 4) when Metformin (≥1,000 mg/Day) and Gemigliptin (50 mg/Day) were Co-Administered at Constant Doses for at Least 8 Weeks Prior to Pre-Visit (Prescreening) • Without a separate stabilization period, Pre-visit (pre-screening) was Visit 1 (screening).
Subjects who met the inclusion/exclusion criteria continued to receive metformin and gemigliptin while receiving a placebo of the clinical trial drug in a single-blind (subject-blinded) state for a 2-week run-in period.
Here, the randomized subjects were stratified according to the administration therapy (co-administration with two or less agents (one or two agents) or three or more agents) of a conventional hypoglycemic agent (before washout of another hypoglycemic agent) within 24 weeks prior to obtaining written informed consent and by an HbA1c value (<8% or ≥8%) at Visit 1 (screening) measured in the central laboratory.
The randomized subjects were administered two tablets of the clinical trial drug corresponding to each administration group once a day, and then visited the institution at weeks 6, 12, 18, and 24 during the 24-week administration period to conduct efficacy and safety assessments. In addition, during the clinical trial period, they were instructed to exercise regularly and control their diet without changing their daily life patterns.
• 1) Change in HbA1c at week 24 after administration of clinical trial drug compared to Visit 2 (randomization)
• 1) Change in HbA1c at each time point of weeks 6, 12, and 18 after administration of clinical trial drug compared to Visit 2 (randomization) • 2) Change in FPG at each time point of weeks 6, 12, 18, and 24 after administration of clinical trial drug compared to Visit 2 (randomization) • 3) Proportion of subjects achieving HbA1c<7% at each time point of weeks 6, 12, 18, and 24 after administration of clinical trial drug • 4) Proportion of subjects achieving HbA1c<6.5% at each time point of weeks 6, 12, 18, and 24 after administration of clinical trial drug • 5) Proportion of subjects achieving therapeutic response (HbA1c change (HbA1c at Visit 2—HbA1c at each evaluation time point)>0.5% or HbA1c<7% at each evaluation time point compared to Visit 2 (randomization)) at each time point of weeks 6, 12, 18, and 24 after administration of clinical trial drug • 6) Proportion of subjects achieving therapeutic response (HbA1c change (HbA1c at Visit 2—HbA1c at each evaluation time point)>0.7% or HbA1c<7% at each evaluation time point compared to Visit 2 (randomization)) at each time point of weeks 6, 12, 18, and 24 after administration of clinical trial drug • 7) Proportion of subjects achieving therapeutic response (HbA1c change (HbA1c at Visit 2—HbA1c at each evaluation time point)>1% or HbA1c<7% at each evaluation time point compared to Visit 2 (randomization)) at each time point of weeks 6, 12, 18, and 24 after administration of clinical trial drug

[1] = week 18, per-protocol set, enavogliflozin 0.3 mg, dapagliflozin 10 mg
[2] = week 24, modified per-protocol set 1, enavogliflozin 0.3 mg vs dapagliflozin 10 mg
[3] = week 24, modified per-protocol set 1, enavogliflozin 0.3 mg, dapagliflozin 10 mg
[4] = week 24, modified per-protocol set 2

## OC[C@H]1O[C@@H](c2cc(Cc3ccc(C4CC4)cc3)c(Cl)c3c2CCO3)[C@H](O)[C@@H](O)[C@@H]1O [Enavogliflozin, (2S,3R,4R,5S,6R)-2-(7-chloro-6 (4-cyclopropylbenzyl)-2,3-dihydrobenzofuran-4-yl)-6-(hydroxymethyl)tetrahydro-2H-pyran-3,4,5-triol]
[1]
  HbA1c, Median: 6.87%
  Subjects achieving HbA1c target of <6.5%, (%): 14.53%
  Subjects achieving HbA1c target of <7%, %: 63.25%
  body weight, Median: 65.40 kg
Week 18, per-protocol set, response 2 = HbA1c change >0.7% or HbA1c <7%, enavogliflozin 0.3 mg, dapagliflozin 10 mg
  Subjects achieving therapeutic glycemic response 2, %: 77.78%
Week 18, per-protocol set, response 3 = HbA1c change >1% or HbA1c <7%, enavogliflozin 0.3 mg, dapagliflozin 10 mg
  Subjects achieving therapeutic glycemic response 3, %: 74.36%
Week 24
  FPG change from baseline, LS mean (SE): −27.21(1.81) mg/dL
  HDL-C change from baseline, LS mean (SE): 4.32(0.71) mg/dL
  HOMA-IR change from baseline, LS mean (SE): −1.09(0.11)
  HOMA-β change from baseline, LS mean (SE): 1.09(4.79)
  HbA1c change from baseline, LS mean (SE): −0.92(0.05) % p
  HbA1c change from baseline, Mean (SD): −0.93(0.70) % p
  LDL-C change from baseline, LS mean (SE): 0.85(1.89) mg/dL
  UACR change from baseline, LS mean (SE): −15.34 (3.93) g/kg
  UGCR change from baseline, LS mean (SE): 60.22(2.31) mg/mg
  adiponectin change from baseline, LS mean (SE): 1.42(0.35) μg/mL
  body weight change from baseline, LS mean (SE): −3.15(0.23) kg
  diastolic blood pressure change from baseline, LS mean (SE): −2.55(0.72) mmHg
  fasting C-peptide change from baseline, LS mean (SE): −0.09(0.02) ng/ml
  leptin change from baseline, LS mean (SE): −1.46(0.52) ng/mL
  systolic blood pressure change from baseline, LS mean (SE): −4.49(0.96) mmHg
  total cholesterol change from baseline, LS mean (SE): 4.48(2.07) mg/dL
  triglyceride change from baseline, LS mean (SE): −8.22(4.01) mg/dL
Week 24, FAS, vs dapagliflozin
  Odds ratio for administering the rescue drug: 0.36
Week 24, vs dapagliflozin
  FPG change from baseline, LS mean difference: -3.49 mg/dL
  HDL-C change from baseline, LS mean difference: -0.08 mg/dL
  HOMA-IR change from baseline, LS mean difference: −0.16
  HOMA-β change from baseline, LS mean difference: −4.69
  HbA1c change from baseline, LS mean difference: −0.06 % p
  LDL-C change from baseline, LS mean difference: -2.27 mg/dL
  Odds ratio for achieving HbA1c<6.5%: 1.27
  Odds ratio for achieving HbA1c<7%: 1.17
  Odds ratio, therapeutic response (HbA1c change >0.5% or HbA1c<7%): 1.15
  Odds ratio, therapeutic response (HbA1c change >0.7% or HbA1c<7%): 0.98
  Odds ratio, therapeutic response (HbA1c change >1% or HbA1c<7%): 1.22
  UACR change from baseline, LS mean difference: 0.79 g/kg
  UGCR change from baseline, LS mean difference: 16.71 mg/mg
  adiponectin change from baseline, LS mean difference: 0.49 µg/mL
  body weight change from baseline, LS mean difference: -0.15 kg
  diastolic blood pressure change from baseline, LS mean difference: −0.66 mmHg
  fasting C-peptide change from baseline, LS mean difference: -0.01 ng/mL
  leptin change from baseline, LS mean difference: -0.89 ng/mL
  systolic blood pressure change from baseline, LS mean difference: −0.22 mmHg
  total cholesterol change from baseline, LS mean difference: -1.09 mg/dL
  triglyceride change from baseline, LS mean difference: 0.56 mg/dL
[2]
  Change from baseline in HDL-C, ANCOVA LS mean difference: -0.08 mg/dL
  Change from baseline in LDL-C, ANCOVA LS mean difference: -2.27 mg/dL
  Change from baseline in total cholesterol, ANCOVA LS mean difference: -1.09 mg/dL
  Change from baseline in triglycerides, ANCOVA LS mean difference: 0.56 mg/dL
[3]
  Change from baseline in HDL-C, ANCOVA LS mean: 4.32 mg/dL
  Change from baseline in HDL-C, Mean: 4.53 mg/dL
  Change from baseline in HDL-C, Median: 4.00 mg/dL
  Change from baseline in LDL-C, ANCOVA LS mean: 0.85 mg/dL
  Change from baseline in LDL-C, Mean: 1.75 mg/dL
  Change from baseline in LDL-C, Median: 0.50 mg/dL
  Change from baseline in total cholesterol, ANCOVA LS mean: 4.48 mg/dL
  Change from baseline in total cholesterol, Mean: 5.59 mg/dL
  Change from baseline in total cholesterol, Median: 5.50 mg/dL
  Change from baseline in triglycerides, ANCOVA LS mean: -8.22 mg/dL
  Change from baseline in triglycerides, Mean: -6.05 mg/dL
  Change from baseline in triglycerides, Median: -1.00 mg/dL
  Fasting HDL-C, Mean: 50.58 mg/dL
  Fasting HDL-C, Median: 48.50 mg/dL
  Fasting LDL-C, Mean: 73.15 mg/dL
  Fasting LDL-C, Median: 70.50 mg/dL
  Fasting total cholesterol, Mean: 140.06 mg/dL
  Fasting triglycerides, Mean: 113.01 mg/dL
  Fasting triglycerides, Median: 101.00 mg/dL
  fasting Total cholesterol, Median: 134.00 mg/dL
[4]
  Change from baseline in diastolic blood pressure, ANCOVA LS mean: −2.55 mmHg
  Change from baseline in diastolic blood pressure, LS mean difference (enavogliflozin − dapagliflozin): −0.66 mmHg
  Change from baseline in diastolic blood pressure, Mean: −3.19 mmHg
